{"source": "the supplement of paper PMC11208160", "data": [{"assay": "recombinant barcode read abundance after kanamycin selection (control-corrected) (log10(CPM+1)); higher = more efficient recombination; sequences stand for … in AGTGCAGAGAAAATCGGCCAGTTTTCTCTGCCTGCAGTCCGCATGCCGT…ATTTATGCAGCGGACTGCCTTTCTCCCAAAGTGATAAACCGGACAGTATCATGGACCGGTTTTCCCGGTAATCCGTATTTGCAAGGTTGGTTTCACT; site = the 11-nt target", "experimental": "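Same pooled E. coli target screen (IS621 bridge recombinase, kanamycin selection, control-corrected CPM, mean of 2 biological replicates). Here the two core-binding nucleotides of the LTG and RTG of the bridge RNA target-binding loop are mutated. Target and donor CT cores are held constant, and the other 9 guide positions match the target. The target is read from the library oligo sequence. Molecule = full bridge RNA written as DNA: nt 1-80 from the library oligo, rest WT scaffold.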", "values": [{"sequence": "AAACACACTTGGGTTCTAACCTGTTGCCTCA [AAACACACTAG_LTGcore_CT_RTGcore_TG] (site AAACACACTAG) (LTG core: CT, RTG core: TG)", "recombinant barcode read abundance (log10)": 0.985}, {"sequence": "AAACACACTTGGGTTCTAACCTGTTGCCTTA [AAACACACTAG_LTGcore_CT_RTGcore_TA] (site AAACACACTAG) (LTG core: CT, RTG core: TA)", "recombinant barcode read abundance (log10)": 0.852}, {"sequence": "AAACACATCTGGGTTCTAACCTGTTGCCTGA [AAACACACTAG_LTGcore_TC_RTGcore_TC] (site AAACACACTAG) (LTG core: TC, RTG core: TC)", "recombinant barcode read abundance (log10)": 0.505}, {"sequence": "AAACAGTAATGGGTTCTAACCTGTTGCCTAG [AAACAGTCTAG_LTGcore_AA_RTGcore_CT] (site AAACAGTCTAG) (LTG core: AA, RTG core: CT)", "recombinant barcode read abundance (log10)": 0.01}, {"sequence": "AAACAGTACTGGGTTCTAACCTGTTGCCTAG [AAACAGTCTAG_LTGcore_AC_RTGcore_CT] (site AAACAGTCTAG) (LTG core: AC, RTG core: CT)", "recombinant barcode read abundance (log10)": 0.0247}, {"sequence": "AAACAGTCATGGGTTCTAACCTGTTGCCTAG [AAACAGTCTAG_LTGcore_CA_RTGcore_CT] (site AAACAGTCTAG) (LTG core: CA, RTG core: CT)", "recombinant barcode read abundance (log10)": 1.38}, {"sequence": "AAACAGTCATGGGTTCTAACCTGTTGCCTTG [AAACAGTCTAG_LTGcore_CA_RTGcore_CA] (site AAACAGTCTAG) (LTG core: CA, RTG core: CA)", "recombinant barcode read abundance (log10)": 0.25}, {"sequence": "AAACAGTCGTGGGTTCTAACCTGTTGCCTCG [AAACAGTCTAG_LTGcore_CG_RTGcore_CG] (site AAACAGTCTAG) (LTG core: CG, RTG core: CG)", "recombinant barcode read abundance (log10)": 0.227}, {"sequence": "AAACAGTCTTGGGTTCTAACCTGTTGCCTAT [AAACAGTCTAG_LTGcore_CT_RTGcore_AT] (site AAACAGTCTAG) (LTG core: CT, RTG core: AT)", "recombinant barcode read abundance (log10)": 1.32}, {"sequence": "AAACAGTCTTGGGTTCTAACCTGTTGCCTCC [AAACAGTCTAG_LTGcore_CT_RTGcore_GG] (site AAACAGTCTAG) (LTG core: CT, RTG core: GG)", "recombinant barcode read abundance (log10)": 1.4}, {"sequence": "AAACAGTGATGGGTTCTAACCTGTTGCCTAG [AAACAGTCTAG_LTGcore_GA_RTGcore_CT] (site AAACAGTCTAG) (LTG core: GA, RTG core: CT)", "recombinant barcode read abundance (log10)": 0.192}, {"sequence": "AAACAGTGATGGGTTCTAACCTGTTGCCTTC [AAACAGTCTAG_LTGcore_GA_RTGcore_GA] (site AAACAGTCTAG) (LTG core: GA, RTG core: GA)", "recombinant barcode read abundance (log10)": 0.0385}, {"sequence": "AAACAGTGGTGGGTTCTAACCTGTTGCCTAG [AAACAGTCTAG_LTGcore_GG_RTGcore_CT] (site AAACAGTCTAG) (LTG core: GG, RTG core: CT)", "recombinant barcode read abundance (log10)": 0.0371}, {"sequence": "AAACAGTTGTGGGTTCTAACCTGTTGCCTCA [AAACAGTCTAG_LTGcore_TG_RTGcore_TG] (site AAACAGTCTAG) (LTG core: TG, RTG core: TG)", "recombinant barcode read abundance (log10)": 0.0424}, {"sequence": "AAACAGTTTTGGGTTCTAACCTGTTGCCTAG [AAACAGTCTAG_LTGcore_TT_RTGcore_CT] (site AAACAGTCTAG) (LTG core: TT, RTG core: CT)", "recombinant barcode read abundance (log10)": 0.109}, {"sequence": "AAACATGAATGGGTTCTAACCTGTTGCCTAG [AAACATGCTAG_LTGcore_AA_RTGcore_CT] (site AAACATGCTAG) (LTG core: AA, RTG core: CT)", "recombinant barcode read abundance (log10)": 0}, {"sequence": "AAACATGACTGGGTTCTAACCTGTTGCCTGT [AAACATGCTAG_LTGcore_AC_RTGcore_AC] (site AAACATGCTAG) (LTG core: AC, RTG core: AC)", "recombinant barcode read abundance (log10)": 0.123}, {"sequence": "AAACATGCTTGGGTTCTAACCTGTTGCCTAC [AAACATGCTAG_LTGcore_CT_RTGcore_GT] (site AAACATGCTAG) (LTG core: CT, RTG core: GT)", "recombinant barcode read abundance (log10)": 1.05}, {"sequence": "AAACATGCTTGGGTTCTAACCTGTTGCCTGC [AAACATGCTAG_LTGcore_CT_RTGcore_GC] (site AAACATGCTAG) (LTG core: CT, RTG core: GC)", "recombinant barcode read abundance (log10)": 0.756}, {"sequence": "AAACATGCTTGGGTTCTAACCTGTTGCCTTA [AAACATGCTAG_LTGcore_CT_RTGcore_TA] (site AAACATGCTAG) (LTG core: CT, RTG core: TA)", "recombinant barcode read abundance (log10)": 0.485}, {"sequence": "AAACATGCTTGGGTTCTAACCTGTTGCCTTT [AAACATGCTAG_LTGcore_CT_RTGcore_AA] (site AAACATGCTAG) (LTG core: CT, RTG core: AA)", "recombinant barcode read abundance (log10)": 0.865}, {"sequence": "AAACATGGGTGGGTTCTAACCTGTTGCCTCC [AAACATGCTAG_LTGcore_GG_RTGcore_GG] (site AAACATGCTAG) (LTG core: GG, RTG core: GG)", "recombinant barcode read abundance (log10)": 0.137}, {"sequence": "AAACATGTGTGGGTTCTAACCTGTTGCCTCA [AAACATGCTAG_LTGcore_TG_RTGcore_TG] (site AAACATGCTAG) (LTG core: TG, RTG core: TG)", "recombinant barcode read abundance (log10)": 0.015}, {"sequence": "ACGGGACATTGGGTTCTAACCTGTTGCAGAG [ACGGGACCTCT_LTGcore_AT_RTGcore_CT] (site ACGGGACCTCT) (LTG core: AT, RTG core: CT)", "recombinant barcode read abundance (log10)": 0.0817}, {"sequence": "ACGGGACCGTGGGTTCTAACCTGTTGCAGAG [ACGGGACCTCT_LTGcore_CG_RTGcore_CT] (site ACGGGACCTCT) (LTG core: CG, RTG core: CT)", "recombinant barcode read abundance (log10)": 1.86}, {"sequence": "ACGGGACCTTGGGTTCTAACCTGTTGCAGCA [ACGGGACCTCT_LTGcore_CT_RTGcore_TG] (site ACGGGACCTCT) (LTG core: CT, RTG core: TG)", "recombinant barcode read abundance (log10)": 0.0129}, {"sequence": "ACGGGACCTTGGGTTCTAACCTGTTGCAGGT [ACGGGACCTCT_LTGcore_CT_RTGcore_AC] (site ACGGGACCTCT) (LTG core: CT, RTG core: AC)", "recombinant barcode read abundance (log10)": 0.534}, {"sequence": "ACGGGACCTTGGGTTCTAACCTGTTGCAGTC [ACGGGACCTCT_LTGcore_CT_RTGcore_GA] (site ACGGGACCTCT) (LTG core: CT, RTG core: GA)", "recombinant barcode read abundance (log10)": 0.425}, {"sequence": "ACGGGACGTTGGGTTCTAACCTGTTGCAGAG [ACGGGACCTCT_LTGcore_GT_RTGcore_CT] (site ACGGGACCTCT) (LTG core: GT, RTG core: CT)", "recombinant barcode read abundance (log10)": 0.463}, {"sequence": "ACGGGACTATGGGTTCTAACCTGTTGCAGAG [ACGGGACCTCT_LTGcore_TA_RTGcore_CT] (site ACGGGACCTCT) (LTG core: TA, RTG core: CT)", "recombinant barcode read abundance (log10)": 0.0145}, {"sequence": "ACGGGACTCTGGGTTCTAACCTGTTGCAGGA [ACGGGACCTCT_LTGcore_TC_RTGcore_TC] (site ACGGGACCTCT) (LTG core: TC, RTG core: TC)", "recombinant barcode read abundance (log10)": 0}, {"sequence": "AGGAGGTACTGGGTTCTAACCTGTTGCCTGT [AGGAGGTCTAG_LTGcore_AC_RTGcore_AC] (site AGGAGGTCTAG) (LTG core: AC, RTG core: AC)", "recombinant barcode read abundance (log10)": 0.183}, {"sequence": "AGGAGGTATTGGGTTCTAACCTGTTGCCTAT [AGGAGGTCTAG_LTGcore_AT_RTGcore_AT] (site AGGAGGTCTAG) (LTG core: AT, RTG core: AT)", "recombinant barcode read abundance (log10)": 0.643}, {"sequence": "AGGAGGTCATGGGTTCTAACCTGTTGCCTAG [AGGAGGTCTAG_LTGcore_CA_RTGcore_CT] (site AGGAGGTCTAG) (LTG core: CA, RTG core: CT)", "recombinant barcode read abundance (log10)": 0.207}, {"sequence": "AGGAGGTCATGGGTTCTAACCTGTTGCCTTG [AGGAGGTCTAG_LTGcore_CA_RTGcore_CA] (site AGGAGGTCTAG) (LTG core: CA, RTG core: CA)", "recombinant barcode read abundance (log10)": 0}, {"sequence": "AGGAGGTCCTGGGTTCTAACCTGTTGCCTGG [AGGAGGTCTAG_LTGcore_CC_RTGcore_CC] (site AGGAGGTCTAG) (LTG core: CC, RTG core: CC)", "recombinant barcode read abundance (log10)": 0.227}, {"sequence": "AGGAGGTCGTGGGTTCTAACCTGTTGCCTCG [AGGAGGTCTAG_LTGcore_CG_RTGcore_CG] (site AGGAGGTCTAG) (LTG core: CG, RTG core: CG)", "recombinant barcode read abundance (log10)": 0.384}, {"sequence": "AGGAGGTCTTGGGTTCTAACCTGTTGCCTAC [AGGAGGTCTAG_LTGcore_CT_RTGcore_GT] (site AGGAGGTCTAG) (LTG core: CT, RTG core: GT)", "recombinant barcode read abundance (log10)": 0.332}, {"sequence": "AGGAGGTCTTGGGTTCTAACCTGTTGCCTTA [AGGAGGTCTAG_LTGcore_CT_RTGcore_TA] (site AGGAGGTCTAG) (LTG core: CT, RTG core: TA)", "recombinant barcode read abundance (log10)": 0.446}, {"sequence": "AGGAGGTCTTGGGTTCTAACCTGTTGCCTTG [AGGAGGTCTAG_LTGcore_CT_RTGcore_CA] (site AGGAGGTCTAG) (LTG core: CT, RTG core: CA)", "recombinant barcode read abundance (log10)": 0.336}, {"sequence": "AGGAGGTGATGGGTTCTAACCTGTTGCCTTC [AGGAGGTCTAG_LTGcore_GA_RTGcore_GA] (site AGGAGGTCTAG) (LTG core: GA, RTG core: GA)", "recombinant barcode read abundance (log10)": 0.218}]}]}
